Target: T1, LRRK2 (Homo sapiens, UniProt Q5S007)
Test: LRRK2 KI determination
Format: biochemical
Settings: not given
Target sequence in this assay (Q5S007 970-2527): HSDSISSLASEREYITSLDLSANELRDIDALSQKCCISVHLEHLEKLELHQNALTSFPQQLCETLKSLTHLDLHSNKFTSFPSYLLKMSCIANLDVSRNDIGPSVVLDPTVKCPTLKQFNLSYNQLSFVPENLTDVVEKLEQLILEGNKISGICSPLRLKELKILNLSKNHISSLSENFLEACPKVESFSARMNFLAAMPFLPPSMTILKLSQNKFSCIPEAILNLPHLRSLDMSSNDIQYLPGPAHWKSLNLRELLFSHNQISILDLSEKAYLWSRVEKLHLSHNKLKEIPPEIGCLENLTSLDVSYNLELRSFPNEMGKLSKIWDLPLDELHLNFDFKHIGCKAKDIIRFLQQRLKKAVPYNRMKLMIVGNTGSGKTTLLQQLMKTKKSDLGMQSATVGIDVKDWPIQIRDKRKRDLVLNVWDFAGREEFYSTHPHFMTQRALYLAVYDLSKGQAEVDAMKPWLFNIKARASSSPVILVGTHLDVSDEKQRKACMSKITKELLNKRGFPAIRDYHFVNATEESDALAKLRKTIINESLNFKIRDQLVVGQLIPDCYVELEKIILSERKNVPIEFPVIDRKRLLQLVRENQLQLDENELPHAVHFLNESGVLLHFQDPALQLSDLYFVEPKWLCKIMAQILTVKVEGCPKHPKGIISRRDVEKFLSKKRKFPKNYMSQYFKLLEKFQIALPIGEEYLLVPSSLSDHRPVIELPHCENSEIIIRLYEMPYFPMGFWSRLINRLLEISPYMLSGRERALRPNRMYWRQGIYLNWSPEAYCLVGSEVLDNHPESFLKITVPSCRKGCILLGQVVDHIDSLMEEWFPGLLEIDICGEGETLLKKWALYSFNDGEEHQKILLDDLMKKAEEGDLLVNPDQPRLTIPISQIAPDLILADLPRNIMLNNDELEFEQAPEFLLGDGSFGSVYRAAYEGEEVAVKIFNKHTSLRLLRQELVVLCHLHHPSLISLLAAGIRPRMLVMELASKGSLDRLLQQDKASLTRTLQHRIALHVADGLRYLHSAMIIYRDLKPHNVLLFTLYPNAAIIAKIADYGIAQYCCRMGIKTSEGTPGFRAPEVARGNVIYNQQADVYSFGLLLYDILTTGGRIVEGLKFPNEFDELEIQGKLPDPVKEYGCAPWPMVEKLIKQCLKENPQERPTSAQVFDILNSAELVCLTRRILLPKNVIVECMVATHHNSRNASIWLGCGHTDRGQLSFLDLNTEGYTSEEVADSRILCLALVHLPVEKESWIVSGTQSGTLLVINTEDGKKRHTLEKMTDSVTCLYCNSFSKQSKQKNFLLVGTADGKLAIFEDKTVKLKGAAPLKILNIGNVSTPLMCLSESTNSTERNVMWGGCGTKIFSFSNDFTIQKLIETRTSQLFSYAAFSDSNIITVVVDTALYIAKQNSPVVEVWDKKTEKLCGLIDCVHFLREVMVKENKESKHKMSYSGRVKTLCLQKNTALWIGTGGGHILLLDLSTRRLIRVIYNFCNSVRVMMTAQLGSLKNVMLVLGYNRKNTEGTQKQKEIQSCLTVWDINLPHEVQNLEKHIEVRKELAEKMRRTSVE

SMILES	Ki
CC(C)Cn1cc(-c2n[nH]c3cc(C#N)nc(OC4CCOCC4)c23)cn1 [Example 11, 3-(1-isobutyl-1H-pyrazol-4-yl)-4-(tetrahydro-2H-pyran-4-yloxy)-1H-pyrazolo[4,3-c]pyridine-6-carbonitrile]	< 100 nM
Clc1cc2[nH]nc(-c3ccnc(N4CCOCC4)c3)c2c(OC2CCOCC2)n1 [Example 12, 4-(4-(6-chloro-4-(tetrahydro-2H-pyran-4-yloxy)-1H-pyrazolo[4,3-c]pyridin-3-yl)pyridin-2-yl)morpholine]	< 100 nM
N#Cc1cc2[nH]nc(-c3ccnc(N4CCOCC4)c3)c2c(OC2CCOCC2)n1 [Example 13]	100 to 1000 nM
Cc1[nH]nc2cc(C3CC3)nc(OC3CCCCC3)c12 [Example 14, 4-(cyclohexyloxy)-6-cyclopropyl-3-methyl-1H-pyrazolo[4,3-c]pyridine]	100 to 1000 nM
CC(C)n1cc(-c2n[nH]c3cc(C(F)(F)F)nc(OC4CCOCC4)c23)cn1 [Example 15, 3-(1-isopropyl-1H-pyrazol-4-yl)-4-(tetrahydro-2H-pyran-4-yloxy)-6-(trifluoromethyl)-1H-pyrazolo[4,3-c]pyridine]	< 100 nM
Cc1cc2[nH]nc(-c3cc(C(=O)N(C)C)ccn3)c2c(NC2CCOCC2)n1 [Example 16, N,N-dimethyl-2-(6-methyl-4-(tetrahydro-2H-pyran-4-ylamino)-1H-pyrazolo[4,3-c]pyridin-3-yl)isonicotinamide]	100 to 1000 nM
CCOc1cc(-c2n[nH]c3cc(C)nc(NC4CCOCC4)c23)ncn1 [Example 17, 3-(6-ethoxypyrimidin-4-yl)-6-methyl-N-(tetrahydro-2H-pyran-4-yl)-1H-pyrazolo[4,3-c]pyridin-4-amine]	< 100 nM
Cc1cc2[nH]nc(-c3cc(C(F)(F)F)ccn3)c2c(NC2CCOCC2)n1 [Example 18, 6-methyl-N-(tetrahydro-2H-pyran-4-yl)-3-(4-(trifluoromethyl)pyridin-2-yl)-1H-pyrazolo[4,3-c]pyridin-4-amine]	< 100 nM
Cc1cc2[nH]nc(-c3cc(C(F)(F)F)ncn3)c2c(NC2CCOCC2)n1 [Example 19, 6-methyl-N-(tetrahydro-2H-pyran-4-yl)-3-(6-(trifluoromethyl)pyrimidin-4-yl)-1H-pyrazolo[4,3-c]pyridin-4-amine]	< 100 nM
COc1nc(C)cc2[nH]nc(-c3ccnc(N4CCOCC4)c3)c12 [Example 20, 4-(4-(4-methoxy-6-methyl-1H-pyrazolo[4,3-c]pyridin-3-yl)pyridin-2-yl)morpholine]	100 to 1000 nM
CNC(=O)c1cccc(-c2[nH]nc3cc(C)nc(OC)c23)c1 [Example 21, 3-(4-Methoxy-6-methyl-1H-pyrazolo[4,3-c]pyridin-3-yl)-N-methylbenzamide]	100 to 1000 nM
Cc1cc2[nH]nc(-c3ccnc(N4CCOCC4)c3)c2c(OC2CCOCC2)n1 [Example 22, 4-(4-(6-Methyl-4-(tetrahydro-2H-pyran-4-yloxy)-1H-pyrazolo[4,3-c]pyridin-3-yl)pyridin-2-yl)morpholine]	< 100 nM
CNC(=O)c1cccc(-c2[nH]nc3cc(C)nc(OC4CCOCC4)c23)c1 [Example 23, N-Methyl-3-(6-Methyl-4-(tetrahydro-2H-pyran-4-yloxy)-1H-pyrazolo[4,3-c]pyridin-3-yl)benzamide]	100 to 1000 nM
Cc1cc2[nH]nc(-c3cnn(C4CCOCC4)c3)c2c(OC2CCOCC2)n1 [Example 24, 6-Methyl-3-(1-(tetrahydro-2H-pyran-4-yl)-1H-pyrazol-4-yl)-4-(tetrahydro-2H-pyran-4-yloxy)-1H-pyrazolo[4,3-c]pyridine]	< 100 nM
COc1nc(C)cc2[nH]nc(-c3cnn(C4CCOCC4)c3)c12 [Example 25, 4-Methoxy-6-methyl-3-(1-(tetrahydro-2H-pyran-4-yl)-1H-pyrazol-4-yl)-1H-pyrazolo[4,3-c]pyridine]	< 100 nM

Target: T1, LRRK2
Test: LRRK2 protein kinase assay ([γ-33P] ATP, peptide substrate), IC50
Format: biochemical
Design: Potency scores (LRRK2 IC50); the wild type has the same borders, PV4873; fused on or other part: GST tag
Settings: LRRK2 form (G2019S or wild type) not given; read-out: Potency scores (LRRK2 IC50)
From the text: All LRRK2 protein kinases were of human origin and were sourced from Invitrogen Corporation (Carlsbad, Calif. 92008 USA) unless otherwise indicated. The active mutant used was recombinant human, catalytic domain (amino acids 970-2527) containing a G2019S mutation, GST-tagged, expressed in insect cells (Invitrogen Cat#PV4881). The wild type used was recombinant human, catalytic domain (amino acids 970-2527) GST—tagged, expressed in insect cells (Invitrogen Cat#PV4873). The kinase dead mutant used was recombinant human, catalytic domain (amino acids 970-2527) containing a D1994A mutation, GST-tagged, expressed in insect cells (Invitrogen Cat#PM4041AE). No special measures were taken to activate any of the kinases.
All assays were carried out at room temperature ([…]) and were linear with respect to time and enzyme concentration under the conditions used. Assays were performed for 180 min in a 96 well format. LRRK2 was present at a concentration of approximately 5 nM.
The enzyme was diluted and assayed in 50 mM Tris-HCl pH7.5, 0.1 mM EGTA, 1 mM DTT and 10 mM MgCl2. The concentration of magnesium chloride in the assay was 10 mM. The [γ-33P] ATP (0.4 μCi/well) was used at 134 uM for G2019S mutant and at 57 μM for the wild type kinase in order to be at Km. The peptide substrate in the assay was […] at 100 μM.
The assays were initiated with Mg/ATP and stopped by the addition of 25 μl/well 50% orthophosphoric acid. Reactions were harvested onto Whatman P81 Unifilter Plates (Fisher Scientific. Loughborough, LE115RG, UK. Cat# FDU-105-020U) using a Tomtec harvester (Tomtec Hamden, Conn. 06514. USA). Plates were counted using a Perkin Elmer Top Count NX7. (Perkin Elmer, Shelton CT 06484-4794 USA)
IC50 values of inhibitors were determined after carrying out assays at 10 different concentrations of each compound in duplicate.
Target sequence in this assay (Q5S007 whole entry G2019S, form open): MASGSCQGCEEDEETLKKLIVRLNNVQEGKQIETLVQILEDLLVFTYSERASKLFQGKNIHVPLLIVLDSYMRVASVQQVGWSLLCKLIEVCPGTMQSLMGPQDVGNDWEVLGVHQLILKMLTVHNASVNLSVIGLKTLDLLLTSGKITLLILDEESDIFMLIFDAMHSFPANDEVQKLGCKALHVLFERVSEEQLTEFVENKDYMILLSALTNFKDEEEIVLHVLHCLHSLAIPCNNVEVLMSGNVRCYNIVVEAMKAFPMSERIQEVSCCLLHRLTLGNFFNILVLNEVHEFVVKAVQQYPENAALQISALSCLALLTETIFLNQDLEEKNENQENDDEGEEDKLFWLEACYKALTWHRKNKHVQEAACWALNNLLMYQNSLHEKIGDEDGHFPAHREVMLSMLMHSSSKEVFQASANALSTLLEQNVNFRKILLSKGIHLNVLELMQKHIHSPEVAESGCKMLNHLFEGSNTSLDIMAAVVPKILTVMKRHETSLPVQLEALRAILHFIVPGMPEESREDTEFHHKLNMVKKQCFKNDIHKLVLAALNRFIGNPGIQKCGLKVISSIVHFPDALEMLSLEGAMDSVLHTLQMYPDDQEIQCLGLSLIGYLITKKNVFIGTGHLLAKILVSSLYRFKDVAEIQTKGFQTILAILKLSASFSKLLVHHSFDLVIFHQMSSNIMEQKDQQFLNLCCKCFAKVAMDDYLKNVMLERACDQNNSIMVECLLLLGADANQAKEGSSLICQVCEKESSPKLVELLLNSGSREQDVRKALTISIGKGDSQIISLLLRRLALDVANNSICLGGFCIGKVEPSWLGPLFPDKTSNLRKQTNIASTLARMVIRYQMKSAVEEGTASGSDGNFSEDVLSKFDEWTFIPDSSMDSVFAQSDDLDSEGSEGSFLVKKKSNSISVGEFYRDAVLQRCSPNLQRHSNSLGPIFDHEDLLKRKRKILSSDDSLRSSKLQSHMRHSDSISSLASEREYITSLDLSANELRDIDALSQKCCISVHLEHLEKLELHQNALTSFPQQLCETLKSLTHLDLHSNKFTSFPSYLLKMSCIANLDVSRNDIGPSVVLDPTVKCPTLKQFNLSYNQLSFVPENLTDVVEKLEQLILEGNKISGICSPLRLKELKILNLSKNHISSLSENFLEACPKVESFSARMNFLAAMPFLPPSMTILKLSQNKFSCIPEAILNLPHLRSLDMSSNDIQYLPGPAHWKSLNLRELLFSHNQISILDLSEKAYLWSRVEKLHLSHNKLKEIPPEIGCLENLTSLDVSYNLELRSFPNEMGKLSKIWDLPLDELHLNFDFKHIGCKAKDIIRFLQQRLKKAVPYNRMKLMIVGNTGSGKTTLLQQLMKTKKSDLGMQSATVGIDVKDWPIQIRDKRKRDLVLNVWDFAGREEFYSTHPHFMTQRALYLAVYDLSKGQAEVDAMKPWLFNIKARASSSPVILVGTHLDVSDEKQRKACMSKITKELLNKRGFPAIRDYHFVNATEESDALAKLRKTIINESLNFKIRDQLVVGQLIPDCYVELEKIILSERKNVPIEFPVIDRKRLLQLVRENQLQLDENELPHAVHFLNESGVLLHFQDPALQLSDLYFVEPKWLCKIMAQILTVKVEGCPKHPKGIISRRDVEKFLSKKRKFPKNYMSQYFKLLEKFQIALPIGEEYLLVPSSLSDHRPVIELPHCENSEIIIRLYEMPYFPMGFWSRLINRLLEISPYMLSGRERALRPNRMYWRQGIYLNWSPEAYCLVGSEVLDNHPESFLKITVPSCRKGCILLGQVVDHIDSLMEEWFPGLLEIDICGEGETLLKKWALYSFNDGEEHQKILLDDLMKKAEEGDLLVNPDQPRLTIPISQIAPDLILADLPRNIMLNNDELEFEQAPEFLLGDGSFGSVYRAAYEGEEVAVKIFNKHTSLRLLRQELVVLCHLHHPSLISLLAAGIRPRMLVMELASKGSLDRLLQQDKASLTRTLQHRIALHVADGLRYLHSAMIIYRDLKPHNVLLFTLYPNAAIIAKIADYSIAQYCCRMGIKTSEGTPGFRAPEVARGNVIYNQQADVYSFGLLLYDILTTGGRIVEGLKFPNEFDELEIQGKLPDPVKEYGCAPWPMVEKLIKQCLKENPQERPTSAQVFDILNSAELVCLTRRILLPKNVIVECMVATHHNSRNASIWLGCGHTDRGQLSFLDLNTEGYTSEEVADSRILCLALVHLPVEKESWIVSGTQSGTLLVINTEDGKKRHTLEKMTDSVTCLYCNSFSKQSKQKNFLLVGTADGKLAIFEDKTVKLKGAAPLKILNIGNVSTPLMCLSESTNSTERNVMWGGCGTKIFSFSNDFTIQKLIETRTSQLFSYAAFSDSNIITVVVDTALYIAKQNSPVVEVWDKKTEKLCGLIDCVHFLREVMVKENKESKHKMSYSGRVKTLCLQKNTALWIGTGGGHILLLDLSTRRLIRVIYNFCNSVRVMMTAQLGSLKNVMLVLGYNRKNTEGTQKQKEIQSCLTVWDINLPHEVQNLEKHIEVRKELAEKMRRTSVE

SMILES	IC50
Cc1n[nH]c2cc(Cl)nc(NC3CCCCC3)c12 [Example 1]	100 to 1000 nM
Cc1n[nH]c2cc(Cl)nc(OC3CCCCC3)c12 [Example 2]	100 to 1000 nM
Cc1n[nH]c2cc(N3CCOCC3)nc(OC3CCCCC3)c12 [Example 3]	1000 to 10000 nM
Cc1n[nH]c2cc(-c3cnn(C)c3)nc(OC3CCCCC3)c12 [Example 4]	1000 to 10000 nM
Cc1cc2[nH]nc(C)c2c(NC2CCCCC2)n1 [Example 5]	1000 to 10000 nM
Cc1cc2[nH]nc(C)c2c(OC2CCCCC2)n1 [Example 6]	100 to 1000 nM
Cc1cc2[nH]nc(C)c2c(-c2ccco2)n1 [Example 7]	100 to 1000 nM
Cc1n[nH]c2cncc(-c3ccco3)c12 [Example 8]	100 to 1000 nM
Cc1n[nH]c2cncc(NC3CCCCC3)c12 [Example 9]	100 to 1000 nM
Cc1n[nH]c2cncc(OC3CCCCC3)c12 [Example 10]	100 to 1000 nM

— patent US20130267513A1, “PYRAZOLOPYRIDINES AS INHIBITORS OF THE KINASE LRRK2” (priority 2010, published 2013)
